≈ marks a conversion by molar mass, not a printed value. Entries after “also recorded” stand apart in the source; their conditions may differ. Where two headings read alike, the source gives them in different places.
How the values were obtained:
[1] = system: Pseudomonas aeruginosa H 11; test: Minimum inhibitory concentration, serial dilution method; type: cell-based
Protocol: (§1) The minimum inhibitory concentrations (mcg/ml) of kanamycin C, 3'-deoxykanamycin C and 3',4'-dideoxykanamycin C against various microorganisms were determened according to serial dilution method using nutrient agar medium at 37° C., the estimation being effected after 18 hours incubation.

[2] = system: Pseudomonas aeruginosa TI-13; test: as above; type: cell-based
Protocol: as §1

[3] = system: Pseudomonas aeruginosa GN 315; test: as above; type: cell-based
Protocol: as §1

[4] = system: Escherichia coli K-12 ML 1410; test: as above; type: cell-based; conditions: K12ML1410, nutrient agar, 37° C., 18 hours, E. coli K-12 ML 1410
Protocol: as §1

[5] = system: Escherichia coli LA 290 R55; test: as above; type: cell-based; conditions: LA290R55, 18 h, read-out: Minimum Inhibitory Concentration
Protocol: as §1

[6] = system: Escherichia coli K-12 ML 1410 R81; test: as above; type: cell-based; conditions: 18 h, read-out: Minimum Inhibitory Concentration
Protocol: as §1

[7] = system: Escherichia coli K-12 ML 1630; test: as above; type: cell-based; conditions: K12ML1630, nutrient agar, 37° C., 18 hours, E. coli K-12 ML 1630
Protocol: as §1

[8] = system: Klebsiella pneumoniae 22 No. 3038; test: as above; type: cell-based
Protocol: as §1

[9] = system: Escherichia coli K-12; test: as above; type: cell-based
Protocol: as §1

[10] = system: Escherichia coli NIHJ; test: as above; type: cell-based; conditions: read-out: Minimum Inhibitory Concentration
Protocol: as §1

[11] = system: Staphylococcus aureus FDA 209P; test: as above; type: cell-based; conditions: FDA209P, read-out: Minimum Inhibitory Concentration
Protocol: as §1

[12] = system: Escherichia coli K-12 ML 1629; test: as above; type: cell-based
Protocol: as §1

[13] = system: Escherichia coli JR 66/W677; test: as above; type: cell-based
Protocol: as §1

[14] = system: Escherichia coli K-12 R5; test: as above; type: cell-based; conditions: K12R5, 18 h, read-out: Minimum Inhibitory Concentration
Protocol: as §1

[15] = system: Pseudomonas aeruginosa A3; test: as above; type: cell-based; conditions: nutrient agar, 37° C., 18 hours, P. aeruginosa A3
Protocol: as §1

[16] = system: Klebsiella pneumoniae PCI 602; test: as above; type: cell-based
Protocol: as §1

[17] = system: Escherichia coli W 677; test: as above; type: cell-based
Protocol: as §1

[18] = system: Pseudomonas aeruginosa No. 12; test: as above; type: cell-based
Protocol: as §1

[19] = system: Escherichia coli LA 290 R64; test: as above; type: cell-based; conditions: LA290R64, 18 h, read-out: Minimum Inhibitory Concentration
Protocol: as §1

[20] = system: Escherichia coli LA 290 R56; test: as above; type: cell-based; conditions: LA290R56, 18 h, read-out: Minimum Inhibitory Concentration
Protocol: as §1

[21] = system: 99; test: as above; type: cell-based; conditions: 18 h, read-out: Minimum Inhibitory Concentration
Protocol: as §1

[22] = system: Mycobacterium smegmatis ATCC 607; test: as above; type: cell-based; conditions: Mycolicibacterium smegmatis, read-out: Minimum Inhibitory Concentration
Protocol: as §1

[23] = system: aminoglycoside 6'-acetyltransferases; test: Inactivation by aminoglycoside 6'-acetyltransferases; type: biochemical
[24] = system: bacterial strains; test: Antibacterial activity in general (summary of Table 1); type: cell-based; conditions: for antibacterial activity compared with 3'-deoxykanamycin B and 3',4'-dideoxykanamycin B: against some bacteria strains
Protocol: as §1

[25] = mouse, in vivo
[26] = in vivo; conditions: mouse, iv
[27] = system: aminoglycoside 3'-phosphotransferases; test: Inactivation by aminoglycoside 3'-phosphotransferases; type: biochemical
[28] = system: resistant strains which produce 6'-acetyltransferases, for example Pseudomonas aeruginosa GN315; test: Activity against resistant strains producing 6'-acetyltransferases; type: cell-based; conditions: compared with kanamycin B derivatives
[29] = system: resistant strains which produce 6'-acetyltransferases, for example Pseudomonas aeruginosa GN315; conditions: known deoxykanamycin B derivatives; cited from earlier work
[30] = system: aminoglycoside 6'-acetyltransferases; conditions: known kanamycins; cited from earlier work
[31] = TI13, 18 h, read-out: Minimum Inhibitory Concentration
[32] = 22NO.3038, 18 h, read-out: Minimum Inhibitory Concentration
[33] = K12, 18 h, read-out: Minimum Inhibitory Concentration
[34] = K12ML1629, 18 h, read-out: Minimum Inhibitory Concentration
[35] = JR66/W677, 18 h, read-out: Minimum Inhibitory Concentration
[36] = PCI602, 18 h, read-out: Minimum Inhibitory Concentration
[37] = W677, 18 h, read-out: Minimum Inhibitory Concentration
[38] = NO.12, 18 h, read-out: Minimum Inhibitory Concentration
[39] = ATCC607, nutrient agar, 37° C., 18 hours, M. smegmatis ATCC 607
[40] = GN315, nutrient agar, 37° C., 18 hours, P. aeruginosa GN 315, read-out: Minimum Inhibitory Concentration

Row | SMILES | MIC [2, 31] | MIC [4] | MIC [5] | MIC [6] | MIC [7] | MIC [8, 32] | MIC [9, 33] | MIC ([10]; 18 h) | MIC ([11]; 18 h) | MIC [12, 34] | MIC [13, 35] | MIC [14] | MIC [15] | MIC [16, 36] | MIC [17, 37] | MIC [18, 38] | MIC [19] | MIC [20] | MIC [21] | MIC [22, 39] | also measured
1 | NC1CCC(CO)OC1OC1C(N)CC(N)C(OC2OC(CO)C(O)C(N)C2O)C1O (stereo not shown) [3',4'-Dideoxykanamycin C, 3',4'-dideoxykanamycin C] | 100 µg/mL (≈ 221 µM) | 12.5 µg/mL (≈ 27.6 µM) | > 100 µg/mL | 50 µg/mL (≈ 110 µM) | 12.5 µg/mL (≈ 27.6 µM) | > 100 µg/mL | 25 µg/mL (≈ 55.2 µM) | 12.5 µg/mL (≈ 27.6 µM) | 6.25 µg/mL (≈ 13.8 µM) | 12.5 µg/mL (≈ 27.6 µM) | > 100 µg/mL | 12.5 µg/mL (≈ 27.6 µM) | 100 µg/mL (≈ 221 µM) | 25 µg/mL (≈ 55.2 µM) | 6.25 µg/mL (≈ 13.8 µM) | 100 µg/mL (≈ 221 µM) | 100 µg/mL (≈ 221 µM) | 100 µg/mL (≈ 221 µM) | > 100 µg/mL | 50 µg/mL (≈ 110 µM) | MIC ([1]; H11, 18 h, read-out: Minimum Inhibitory Concentration): 100 µg/mL (≈ 221 µM); MIC ([3]; GN315, 18 h, read-out: Minimum Inhibitory Concentration): 100 µg/mL (≈ 221 µM); inactivation by 6'-acetyltransferases [23]: not inactivated; growth inhibition of bacterial strains [24]: inhibits the growth of many kinds of bacterial strains; antibacterial activity compared with 3'-deoxykanamycin B and 3',4'-dideoxykanamycin B [24]: inferior; acute toxicity compared with deoxy derivatives of kanamycin B [25]: remarkably lower toxicity; LD50 [26]: > 300 mg/kg; inactivation by 3'-phosphotransferases [27]: not inactivated
2 | NC1CC(O)C(CO)OC1OC1C(N)CC(N)C(OC2OC(CO)C(O)C(N)C2O)C1O (stereo not shown) [3'-Deoxykanamycin C, 3'-deoxykanamycin C] | – | 12.5 µg/mL (≈ 26.7 µM) | > 100 µg/mL | 50 µg/mL (≈ 107 µM) | 12.5 µg/mL (≈ 26.7 µM) | > 100 µg/mL | 12.5 µg/mL (≈ 26.7 µM) | 12.5 µg/mL (≈ 26.7 µM) | 3.13 µg/mL (≈ 6.68 µM) | 12.5 µg/mL (≈ 26.7 µM) | > 100 µg/mL | 12.5 µg/mL (≈ 26.7 µM) | 12.5 µg/mL (≈ 26.7 µM) | 6.25 µg/mL (≈ 13.3 µM) | 6.25 µg/mL (≈ 13.3 µM) | 100 µg/mL (≈ 213 µM) | 50 µg/mL (≈ 107 µM) | 100 µg/mL (≈ 213 µM) | 100 µg/mL (≈ 213 µM) | – | MIC ([1]; H11, nutrient agar, 37° C., 18 hours, P. aeruginosa H 11, read-out: Minimum Inhibitory Concentration): 50 µg/mL (≈ 107 µM); MIC ([2]; TI13, nutrient agar, 37° C., 18 hours, P. aeruginosa TI-13, read-out: Minimum Inhibitory Concentration): 50 µg/mL (≈ 107 µM); MIC [3, 40]: 50 µg/mL (≈ 107 µM); MIC ([22]; ATCC607, 18 h): 25 µg/mL (≈ 53.4 µM); inactivation by 6'-acetyltransferases [23]: not inactivated; growth inhibition of bacterial strains [24]: inhibits the growth of many kinds of bacterial strains; antibacterial activity compared with 3'-deoxykanamycin B and 3',4'-dideoxykanamycin B [24]: inferior; activity against resistant strains which produce 6'-acetyltransferases [28]: more active than kanamycin B derivatives; acute toxicity compared with deoxy derivatives of kanamycin B [25]: remarkably lower toxicity; LD50 [26]: > 300 mg/kg; inactivation by 3'-phosphotransferases [27]: not inactivated
3 | NCC1CCC(N)C(OC2C(N)CC(N)C(OC3OC(CO)C(O)C(N)C3O)C2O)O1 (stereo not shown) [DKB, 3',4'-dideoxykanamycin B, reference compound] | 1.56 µg/mL (≈ 3.45 µM) | 1.56 µg/mL (≈ 3.45 µM) | 50 µg/mL (≈ 111 µM) | 1.56 µg/mL (≈ 3.45 µM) | 0.78 µg/mL (≈ 1.73 µM) | – | – | – | – | – | – | – | 1.56 µg/mL (≈ 3.45 µM) | – | – | – | 6.25 µg/mL (≈ 13.8 µM) | 12.5 µg/mL (≈ 27.7 µM) | 3.13 µg/mL (≈ 6.93 µM) | 0.39 µg/mL (≈ 0.864 µM) | growth inhibition of resistant bacteria producing 6'-acetyltransferases [29]: not able to inhibit the growth; MIC [3, 40]: > 100 µg/mL; MIC ([8]; nutrient agar, 37° C., 18 hours, K. pneumoniae 22 No. 3038, read-out: Minimum Inhibitory Concentration): 100 µg/mL (≈ 221 µM); MIC ([9]; K12, nutrient agar, 37° C., 18 hours, E. coli K-12, read-out: Minimum Inhibitory Concentration): 0.78 µg/mL (≈ 1.73 µM); MIC ([10]; nutrient agar, 37° C., 18 hours, E. coli NIHJ): 0.39 µg/mL (≈ 0.864 µM); MIC ([11]; nutrient agar, 37° C., 18 hours, S. aureus FDA 209P): < 0.2 µg/mL; MIC ([12]; K12ML1629, nutrient agar, 37° C., 18 hours, E. coli K-12 ML 1629, read-out: Minimum Inhibitory Concentration): 0.78 µg/mL (≈ 1.73 µM); MIC ([13]; JR66/W677, nutrient agar, 37° C., 18 hours, E. coli JR 66/W677, read-out: Minimum Inhibitory Concentration): 50 µg/mL (≈ 111 µM); MIC ([16]; PCI602, nutrient agar, 37° C., 18 hours, K. pneumoniae PCI 602, read-out: Minimum Inhibitory Concentration): 0.39 µg/mL (≈ 0.864 µM); MIC ([17]; W677, nutrient agar, 37° C., 18 hours, E. coli W 677, read-out: Minimum Inhibitory Concentration): 0.2 µg/mL (≈ 0.443 µM); MIC ([18]; nutrient agar, 37° C., 18 hours, P. aeruginosa No. 12, read-out: Minimum Inhibitory Concentration): 0.78 µg/mL (≈ 1.73 µM); inactivation (acetylation of the 6'-amino group) by 6'-acetyltransferases [30]: can be inactivated; also recorded: acetylate the 6'-amino group

From patent US4120955A, “Method for production of kanamycin C and its derivatives” (Zaidan Hojin Biseibutsu Kagaku Kenkyu Kai, priority 1976, dated 1978)
